Results on 16 compounds are retold here after US20230113398A1, “INEXPENSIVE METAL-FREE ORGANIC REDOX FLOW BATTERY (ORBAT) FOR GRID-SCALE STORAGE” (UNIVERSITY OF SOUTHERN CALIFORNIA, priority 2013, published 2023).

For series [1] the following is noted: cited from earlier work.
The nature of series [2]: Properties of some common quinones (literature data, Conant and Fieser). It is filed as physicochemical. An excerpt: In a variation as set forth above, the flow battery utilizes a first quinone and a second quinone. Quinones are known to undergo fast electrochemical transformations which are necessary for sustaining high discharge and charge rates in a battery. The facility of electrochemical transformation is characterized by the kinetic parameter termed exchange current density. […] In general, useful quinones are highly soluble in water, chemically stable in strongly acidic/basic solutions, capable of high cell voltage of about 1 V, roundtrip efficiency >80%, and high discharge rate. By selecting a first quinone and a second quinone that are far apart in electrode potential, the cell voltage can be maximized to 1 V. Moreover, the electrode potentials can be modified favorably by substituent groups on the quinones as set forth below. Based on data provided in Table 1 and 2 (J.B. Conant and […]. Am. Chem.

A short description of series [3]: Cyclic voltammetry in 1 M potassium hydroxide. It is filed as physicochemical.
The conditions of series [4]: in water, 25° C; cited from earlier work.
The nature of series [5]: Cyclic voltammetry in mixed solvent (DMF/water). It is filed as physicochemical. The conditions noted are these: DMF/water (80% DMF/20%Water for TYLENOL).
Series [6] in a line: Rotating disk electrode and cyclic voltammetry on glassy carbon, 1 mM compound in 1 M sulfuric acid. It is filed as physicochemical. As for the experimental part:
Measurement of kinetic parameters and diffusion coefficients was conducted in a three-electrode cell consisting of a rotating glassy carbon disk working electrode, a platinum wire counter electrode, and a mercury/mercuric sulfate reference electrode (E° = +0.65 V). […] The solutions were de-aerated and kept under a blanket of argon gas throughout all the experiments. All measurements were conducted in the potentiodynamic mode (Versastat 300 potentiostat) at a scan rate of 5 mV s^-1 over a range of rotation rates (500 rpm to 3000 rpm). Impedance measurements were also made at each rotation rate. Cyclic voltammetry was conducted on a static glassy carbon electrode at a scan rate of 50 mV s^-1.
Where n is the number of electrons transferred, F, the Faraday constant, A, electrode area, Do, the diffusion coefficient, v, the kinematic viscosity of the solution and C*, the bulk concentration of the reactants. For n = 2, an active electrode area of 0.1925 cm^2, and a kinematic viscosity of the electrolyte of 0.01 cm^2 s^-1, we were able to evalulate the diffusion coefficient from the slope of the straight line plots in FIG. 11D.
To determine the kinetic parameters for the charge-transfer process, namely the rate constant and the apparent transfer coeffcient, the logarithm of the kinetic current (after correction for mass-transport losses) was plotted against the observed overpotentials greater than 100 mV, where the Tafel equation is applicable (Eq. 4 and FIG. 11E).
Where I is the current, Ilim is the limiting current, Iex is the exchange current density, Co and CR are the concentration of the oxidized and reduced species at the surface of the electrode, Co* and CR* are the bulk concentrations of the oxidized and reduced species, α is the transfer coefficient, n is the number of electrons transferred, F is the Faraday constant, E-Erev is the overpotential, R is the gas constant, and T is the temperature. The rate constant, ko , was obtained from the exchange current density (Eq. 5).
Where n is the number of electrons transferred, F, the Faraday constant, A, electrode area, Do, the diffusion coefficient, v, the kinematic viscosity of the solution and C*, the bulk concentration of the reactants. For n = 2, an active electrode area of 0.1925 cm^2, and a kinematic viscosity of the electrolyte of 0.01 cm^2 s^-1, we were able to evalulate the diffusion coefficient from the slope of the straight line plots.
To determine the kinetic parameters for the charge-transfer process, namely the rate constant and the apparent transfer coeffcient, the logarithm of the kinetic current (after correction for mass-transport losses) was plotted against the observed overpotentials greater than 100 mV, where the Tafel equation derived from the Butler-Volmer Equation is applicable : […]
Where I is the current, Ilim is the limiting current, Iex is the exchange current density, Co and CR are the concentration of the oxidized and reduced species at the surface of the electrode, Co* and CR* are the bulk concentrations of the oxidized and reduced species, α is the transfer coefficient, n is the number of electrons transferred, F is the Faraday constant, E-Erev is the overpotential, R is the gas constant, and T is the temperature. The rate constant, ko , was obtained from the exchange current density using the relationship

Setting [7] is: Table 7, listed as Anthraquinone sulfonic acid.

≈ marks a conversion by molar mass, not a printed value. Where “and” joins values, the source holds several entries; their conditions need not be identical. Identical values can stand only once. Like-named read-outs stand apart in the source and are kept apart here.

Consider `O=C1C=CC(=O)c2ccccc21` [1,4-naphthaquinone], for which the “Electrode Potential vs. NHE, V” value in series [1] was 0.483 V.

For `O=C1C=CC=CC1=O` [1,2-benzoquinone (ortho), 1,2-benzoquinone], in series [1], the “Electrode Potential vs. NHE, V” value is given as 0.786 V. Besides, the “electrode potential higher relative to 1,4-benzoquinone (para-quinone)” value in series [2] was “approximately 85 mV”.

As for anthraquinone-2-sulfonic acid salt, in series [3], the “reversible peak potential vs. MMO” value is reported as “about -0.4 V”.

The term solubility denotes the dissolved amount per volume that the medium holds. As for `O=C1C=CC(=O)C=C1` [benzoquinone], in series [4], the solubility was 100 mM (≈ 10.8 mg/mL).

`O=C1C=C(O)C(=O)c2ccccc21` [2-hydroxy-1,4-naphthaquinone]: the “Electrode Potential vs. NHE, V” value in series [1] is recorded as 0.357 V.

`O=C1c2ccccc2C(=O)c2c(O)cccc21` [1-hydroxy-9,10-anthraquinone]: in series [1], the “Electrode Potential vs. NHE, V” value is 0.131 V.

Consider `O=C1C=CC(=O)C=C1` [1,4-benzoquinone (para), 1,4-benzoquinone], for which, in series [1], the “Electrode Potential vs. NHE, V” value was 0.700 V.

As to `O=C1c2cccc(O)c2C(=O)c2c(O)cccc21` [1,8-dihydroxy anthraquinone, 1,8-dihydroxy anthraquinone], the “reversible peak potential vs. MMO” value in series [3] is “approximately -0.60 V”.

As to `O=C1c2ccccc2C(=O)c2c1cccc2S(=O)(=O)O` [9,10-anthraquinone-1-sulfonic acid], in series [1], the “Electrode Potential vs. NHE, V” value was 0.183 V.

With `CC(=O)Nc1ccc(O)cc1` [TYLENOL®, reference compound], the “reversibility of the electrochemistry” value in series [5] was “DMF does not enhance the reversibility”.

With `O=C1C=C(S(=O)(=O)O)C=C(S(=O)(=O)O)C1=O` [benzoquinone disulfonic acid], the solubility in series [4] is 1700 mM (≈ 456 mg/mL).

`O=C1c2ccccc2C(=O)c2ccccc21` [9,10-anthraquinone, reference compound]: the “Electrode Potential vs. NHE, V” value in series [1] is 0.157 V. Also, in series [6] (1 M sulfuric acid), the “Standard Reduction Potentials: E°(formal) Measured” value is “Insoluble” and the “Standard Reduction Potentials: Experimental (E½ values) vs. NHE” value is given as “Insoluble”.

Turning to `O=C1c2ccccc2C(=O)c2cc(S(=O)(=O)O)ccc21` [Anthraquinone-2-sulfonic acid, anthraquinone-2-sulfonic acid], the “Standard Reduction Potentials: E°(formal) Measured” value in series [6] (1 M sulfuric acid) is recorded as 0.15. For the same compound, the “Diffusion Coefficient, (cm^2 s^-1)” value in series [6] (Table 5, 1 M sulfuric acid, Levich plot) is 3.71E-6 cm^2 s^-1. Also, the “E½ vs. MSE, Volt” value in series [6] (Table 5, MSE E°=+0.65 V, 1 M sulfuric acid) is -0.52 Volt; in series [6] (Table 7, 1 M sulfuric acid), -0.52 Volt. Also, the “Transfer Coefficient, an” value in series [6] (Table 5, Tafel analysis) is given as 0.677. Also, the “Exchange Current Density, (A cm^-2)” value in series [6] (Table 5, glassy carbon RDE, 1 M sulfuric acid) is given as 1.96E-5 A cm^-2. In series [6] (Table 5, obtained from exchange current density), the “Rate Constant, k°” value is 0.000225 cm/s. In addition, the “Diffusion Coefficient (cm2/sec)” value in series [6] (Table 7) is 3.35E-6 cm2/sec; in series [6] (setting [7]) it was 3.18E-6 cm2/sec and 3.35E-6 cm2/sec. The “Exchange Current density (A/cm^2)” value was 1.95E-5 A/cm^2 in series [6] (Table 7); 1.95E-5 A/cm^2 and 2.91E-5 A/cm^2 in series [6] (setting [7]). Besides, in series [6] (1 M sulfuric acid), the “Standard Reduction Potentials: Experimental (E½ values) vs. NHE” value stood at 0.13. Moreover, the “reversibility of the electrochemistry” value in series [5] is “reversible”. Besides, the solubility in the series “Solubility” (DMF/water, aqueous with cosolvent or surfactant or cyclodextrin, solubility in DMF/water) was found to be 700 mM (≈ 202 mg/mL); in the series “Solubility” (Solubility, Table 5), 200 mM (≈ 57.7 mg/mL); in the series “Solubility” (Solubility, Table 7), 200 mM (≈ 57.7 mg/mL); in “Solubility” (water, aqueous solubility limit, aqueous), 200 mM (≈ 57.7 mg/mL).

With `O=C1C=C(S(=O)(=O)O)C(=O)c2ccccc21` [1,4-naphthaquinone-2-sulfonic acid], the “Electrode Potential vs. NHE, V” value in series [1] was 0.534 V.

Take `O=C1C(=O)C(Cl)=C(Cl)C(Cl)=C1Cl` [Tetrachloro-1,2-benzoquinone]: the “Electrode Potential vs. NHE, V” value in series [1] is on record as 0.823 V.

For `O=C1C=CC(=O)C(O)=C1` [2-hydroxyl 1,4-benzoquinone], the “Electrode Potential vs. NHE, V” value in series [1] is listed as 0.596 V.
